Measurements reported in ChEMBL document CHEMBL3044806, “Target-site mutation associated with glufosinate resistance in Italian ryegrass (Lolium perenne L. ssp. multiflorum)” (Pest Manag Sci, 2012).

Tests used:
Lolium multiflorum [1] = test: Herbicidal activity against glufosinate-susceptible Lolium multiflorum C2 (Italian ryegrass) assessed as reduction above-ground dry weight measured after 15 days post compound treatment under greenhouse conditions; assay type: functional
Glutamine synthetase [2] = biological target: T1, Glutamine synthetase (Lolium perenne, UniProt C5IW59); test: Inhibition of glutamine synthetase in glufosinate-resistant Lolium multiflorum MG (Italian ryegrass) seedlings; settings: read-out: I50
T1 sequence (C5IW59 whole entry): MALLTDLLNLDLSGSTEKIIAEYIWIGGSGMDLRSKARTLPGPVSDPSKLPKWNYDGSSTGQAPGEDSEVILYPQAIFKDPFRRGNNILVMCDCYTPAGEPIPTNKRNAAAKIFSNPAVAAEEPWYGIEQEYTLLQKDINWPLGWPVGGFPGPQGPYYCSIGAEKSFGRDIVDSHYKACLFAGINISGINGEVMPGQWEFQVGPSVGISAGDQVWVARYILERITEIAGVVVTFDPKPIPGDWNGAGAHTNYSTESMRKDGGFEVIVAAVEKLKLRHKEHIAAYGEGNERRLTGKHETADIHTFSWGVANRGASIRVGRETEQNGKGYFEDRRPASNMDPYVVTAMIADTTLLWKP

Glutamine synthetase [3] = biological target: T1, Glutamine synthetase; test: Inhibition of glutamine synthetase in glufosinate-susceptible Lolium multiflorum C2 (Italian ryegrass) seedlings; settings: read-out: I50
Lolium multiflorum [4] = test: (§1) Induction of ammonia accumulation in glufosinate-resistant Lolium multiflorum MG (Italian ryegrass) seedlings at 3-leaf stage assessed as ammonia level per gram of leaves fresh weight at 0.4 kg Ai/ha measured 48 hr after compound treatment under greenhouse conditions (reference value: 12.41 +/- 0.97 ug/g of leaves fresh weight); assay type: functional
Lolium multiflorum [5] = test: as §1, with “72” for “48”; assay type: functional
Lolium multiflorum [6] = test: Herbicidal activity against glufosinate-resistant Lolium multiflorum MG (Italian ryegrass) expressing one amino acid substitution in plastidic GS2 gene aspartic acid for asparagine at position 171 assessed as reduction above-ground dry weight measured after 15 days post compound treatment under greenhouse conditions; assay type: functional
Glutamine synthetase [7] = biological target: T1, Glutamine synthetase; test: Inhibition of glutamine synthetase in glufosinate-susceptible Lolium multiflorum C1 (Italian ryegrass) seedlings; settings: read-out: I50
Lolium multiflorum [8] = test: as §1, with “96” for “48”; assay type: functional
Lolium multiflorum [9] = test: as §1, with “glufosinate-susceptible” for “glufosinate-resistant”, “multiflorum” for “multiflorum MG”, “three-leaf” for “3-leaf”, “24” for “48”, “11.04” for “12.41”, “0.89” for “0.97”; assay type: functional, C1
Lolium multiflorum [10] = test: Resistance index, ratio of GR50 for glufosinate-resistant Lolium multiflorum MG (Italian ryegrass) expressing one amino acid substitution in plastidic GS2 gene aspartic acid for asparagine at position 171 to GR50 for glufosinate-susceptible Lolium multiflorum (Italian ryegrass)C1; assay type: functional
Lolium multiflorum [11] = test: Herbicidal activity against glufosinate-susceptible Lolium multiflorum C1 (Italian ryegrass) assessed as reduction above-ground dry weight measured after 15 days post compound treatment under greenhouse conditions; assay type: functional
Lolium multiflorum [12] = test: as §1, with “glufosinate-susceptible” for “glufosinate-resistant”, “C2” for “MG”, “24” for “48”, “14.79” for “12.41”, “4.09” for “0.97”; assay type: functional
Lolium multiflorum [13] = test: as §1, with “24” for “48”; assay type: functional
Lolium multiflorum [14] = test: Resistance index, ratio of GR50 for glufosinate-resistant Lolium multiflorum MG (Italian ryegrass) expressing one amino acid substitution in plastidic GS2 gene aspartic acid for asparagine at position 171 to GR50 for glufosinate-susceptible Lolium multiflorum (Italian ryegrass)C2; assay type: functional
Lolium multiflorum [15] = test: as §1, with “glufosinate-susceptible” for “glufosinate-resistant”, “C2” for “MG”, “72” for “48”, “14.79” for “12.41”, “4.09” for “0.97”; assay type: functional
Lolium multiflorum [16] = test: as §1, with “glufosinate-susceptible” for “glufosinate-resistant”, “C2” for “MG”, “96” for “48”, “14.79” for “12.41”, “4.09” for “0.97”; assay type: functional
Lolium multiflorum [17] = test: as §1, with “glufosinate-susceptible” for “glufosinate-resistant”, “C2” for “MG”, “14.79” for “12.41”, “4.09” for “0.97”; assay type: functional
Lolium multiflorum [18] = test: as §1, with “glufosinate-susceptible” for “glufosinate-resistant”, “C1” for “MG”, “96” for “48”, “11.04” for “12.41”, “0.89” for “0.97”; assay type: functional
Lolium multiflorum [19] = test: as §1, with “glufosinate-susceptible” for “glufosinate-resistant”, “C1” for “MG”, “11.04” for “12.41”, “0.89” for “0.97”; assay type: functional
Lolium multiflorum [20] = test: as §1, with “glufosinate-susceptible” for “glufosinate-resistant”, “C1” for “MG”, “72” for “48”, “11.04” for “12.41”, “0.89” for “0.97”; assay type: functional

Work on `CP(=O)(O)CCC(N)C(=O)O` (stereo not given) [GLUFOSINATE] yielded a GR50 (Lolium multiflorum [1]) of 0.18 KgAi/ha, an IC50 (Glutamine synthetase [2]) of 2430 µM and an IC50 (Glutamine synthetase [3]) of 137 µM. It also gave an Activity (Lolium multiflorum [4]) of 187 µg/g, an Activity (Lolium multiflorum [5]) of 212 µg/g and a GR50 (Lolium multiflorum [6]) of 0.45 KgAi/ha. The IC50 (Glutamine synthetase [7]) was 31 µM, the Activity (Lolium multiflorum [8]) was 256 µg/g and the Activity (Lolium multiflorum [9]) was 225 µg/g. For the same compound, the Ratio (Lolium multiflorum [10]) was 2.8, the GR50 (Lolium multiflorum [11]) was 0.15 KgAi/ha and the Activity (Lolium multiflorum [12]) was 244 µg/g. It also gave an Activity (Lolium multiflorum [13]) of 165 µg/g, a Ratio (Lolium multiflorum [14]) of 2.8 and an Activity (Lolium multiflorum [15]) of 353 µg/g. The Activity (Lolium multiflorum [16]) was 384 µg/g, the Activity (Lolium multiflorum [17]) was 320 µg/g and the Activity (Lolium multiflorum [18]) was 428 µg/g. The Activity (Lolium multiflorum [19]) was 304 µg/g and the Activity (Lolium multiflorum [20]) was 332 µg/g.
